Experimental data taken from PubChem BioAssay (NCI).
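Values below derive from 48-hour exposures of cells grown in 96-well plates, with endpoints linearly interpolated between the two concentrations bracketing the appropriate inhibition level. Definition used: TGI = concentration required for complete inhibition of growth.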

Tests used:
Test in all cases: growth of human tumour cells (NCI), 48 h
786-0 renal = test system: 786-0 renal
A498 renal = test system: A498 renal
A549 NSCLC = test system: A549 NSCLC
ACHN renal = test system: ACHN renal
BT-549 breast = test system: BT-549 breast
CAKI-1 renal = test system: CAKI-1 renal
CCRF-CEM leukemia = test system: CCRF-CEM leukemia
COLO 205 colon = test system: COLO 205 colon
DU-145 prostate = test system: DU-145 prostate
EKVX NSCLC = test system: EKVX NSCLC
HCC-2998 colon = test system: HCC-2998 colon
HCT-116 colon = test system: HCT-116 colon
HCT-15 colon = test system: HCT-15 colon
HOP-62 NSCLC = test system: HOP-62 NSCLC
HOP-92 NSCLC = test system: HOP-92 NSCLC
HS 578T breast = test system: HS 578T breast
HT29 colon = test system: HT29 colon
IGROV1 ovarian = test system: IGROV1 ovarian
K-562 leukemia = test system: K-562 leukemia
KM12 colon = test system: KM12 colon
LOX IMVI melanoma = test system: LOX IMVI melanoma
M14 melanoma = test system: M14 melanoma
MDA-MB-231 breast = test system: MDA-MB-231 breast
MDA-MB-435 = test system: MDA-MB-435
MDA-N = test system: MDA-N
MOLT-4 leukemia = test system: MOLT-4 leukemia
NCI-H226 lung = test system: NCI-H226 lung
NCI-H23 lung = test system: NCI-H23 lung
NCI-H460 lung = test system: NCI-H460 lung
NCI/ADR-RES ovarian = test system: NCI/ADR-RES ovarian
OVCAR-3 ovarian = test system: OVCAR-3 ovarian
OVCAR-4 ovarian = test system: OVCAR-4 ovarian
OVCAR-5 ovarian = test system: OVCAR-5 ovarian
OVCAR-8 ovarian = test system: OVCAR-8 ovarian
PC-3 prostate = test system: PC-3 prostate
RXF 393 renal = test system: RXF 393 renal
SF-268 CNS = test system: SF-268 CNS
SF-295 CNS = test system: SF-295 CNS
SF-539 CNS = test system: SF-539 CNS
SK-MEL-2 melanoma = test system: SK-MEL-2 melanoma
SK-MEL-28 melanoma = test system: SK-MEL-28 melanoma
SK-MEL-5 melanoma = test system: SK-MEL-5 melanoma
SK-OV-3 ovarian = test system: SK-OV-3 ovarian
SN12C renal = test system: SN12C renal
SNB-19 CNS = test system: SNB-19 CNS
SNB-75 CNS = test system: SNB-75 CNS
SR leukemia = test system: SR leukemia
SW-620 colon = test system: SW-620 colon
T-47D breast = test system: T-47D breast
TK-10 renal = test system: TK-10 renal
U251 CNS = test system: U251 CNS
UACC-257 melanoma = test system: UACC-257 melanoma
UACC-62 melanoma = test system: UACC-62 melanoma
UO-31 renal = test system: UO-31 renal
HL-60(TB) leukemia = test system: HL-60(TB) leukemia
MALME-3M melanoma = test system: MALME-3M melanoma
NCI-H522 lung = test system: NCI-H522 lung
MCF7 breast = test system: MCF7 breast
RPMI-8226 leukemia = test system: RPMI-8226 leukemia

Structure (SMILES): CCCC(=O)N(C(=O)CCC)C1=C(Cl)C(=O)c2ccccc2C1=O
- TGI (786-0 renal): 30.8 µM
- TGI (A498 renal): 37.6 µM
- TGI (A549 NSCLC): > 52.8 µM
- TGI (ACHN renal): 2.71 µM
- TGI (BT-549 breast): 10.3 µM
- TGI (CAKI-1 renal): 5.79 µM
- TGI (CCRF-CEM leukemia): > 26.7 µM
- TGI (COLO 205 colon): > 23.3 µM
- TGI (DU-145 prostate): 45.1 µM
- TGI (EKVX NSCLC): > 42.5 µM
- TGI (HCC-2998 colon): 16.4 µM
- TGI (HCT-116 colon): > 33.1 µM
- TGI (HCT-15 colon): 14.2 µM
- TGI (HOP-62 NSCLC): 24.1 µM
- TGI (HOP-92 NSCLC): 45 µM
- TGI (HS 578T breast): 79.7 µM
- TGI (HT29 colon): 31.2 µM
- TGI (IGROV1 ovarian): 20.9 µM
- TGI (K-562 leukemia): 5.01 µM
- TGI (KM12 colon): 15.5 µM
- TGI (LOX IMVI melanoma): 17.8 µM
- TGI (M14 melanoma): 25.8 µM
- TGI (MDA-MB-231 breast): > 67.5 µM
- TGI (MDA-MB-435): 21.4 µM
- TGI (MDA-N): 28.2 µM
- TGI (MOLT-4 leukemia): 10.7 µM
- TGI (NCI-H226 lung): 23.8 µM
- TGI (NCI-H23 lung): 15.8 µM
- TGI (NCI-H460 lung): 29.3 µM
- TGI (NCI/ADR-RES ovarian): 61.3 µM
- TGI (OVCAR-3 ovarian): 11.8 µM
- TGI (OVCAR-4 ovarian): 82.8 µM
- TGI (OVCAR-5 ovarian): 26 µM
- TGI (OVCAR-8 ovarian): 25.3 µM
- TGI (PC-3 prostate): 40 µM
- TGI (RXF 393 renal): 7.1 µM
- TGI (SF-268 CNS): > 45.2 µM
- TGI (SF-295 CNS): 33.3 µM
- TGI (SF-539 CNS): 15.4 µM
- TGI (SK-MEL-2 melanoma): 24 µM
- TGI (SK-MEL-28 melanoma): 13.6 µM
- TGI (SK-MEL-5 melanoma): > 23.9 µM
- TGI (SK-OV-3 ovarian): 34.4 µM
- TGI (SN12C renal): 52.5 µM
- TGI (SNB-19 CNS): 24.4 µM
- TGI (SNB-75 CNS): 15.3 µM
- TGI (SR leukemia): > 54.1 µM
- TGI (SW-620 colon): 14.5 µM
- TGI (T-47D breast): > 100 µM
- TGI (TK-10 renal): 14.8 µM
- TGI (U251 CNS): 23.5 µM
- TGI (UACC-257 melanoma): 11.6 µM
- TGI (UACC-62 melanoma): 11.1 µM
- TGI (UO-31 renal): 4.75 µM

Structure (SMILES): C[n+]1c2ccccc2n2c3ccccc3c(NCCCN3CCOCC3)c(C#N)c21
- TGI (786-0 renal): 8.32 µM
- TGI (A498 renal): > 29 µM
- TGI (A549 NSCLC): 23.8 µM
- TGI (ACHN renal): > 25.5 µM
- TGI (BT-549 breast): > 100 µM
- TGI (CAKI-1 renal): 8.38 µM
- TGI (CCRF-CEM leukemia): > 100 µM
- TGI (COLO 205 colon): 3.15 µM
- TGI (DU-145 prostate): 18.2 µM
- TGI (EKVX NSCLC): 15.1 µM
- TGI (HCC-2998 colon): 3 µM
- TGI (HCT-116 colon): 8.32 µM
- TGI (HCT-15 colon): 19.4 µM
- TGI (HL-60(TB) leukemia): > 100 µM
- TGI (HOP-62 NSCLC): > 33.5 µM
- TGI (HOP-92 NSCLC): > 100 µM
- TGI (HS 578T breast): 6.47 µM
- TGI (HT29 colon): > 100 µM
- TGI (KM12 colon): 15.8 µM
- TGI (LOX IMVI melanoma): 2.64 µM
- TGI (M14 melanoma): 2.85 µM
- TGI (MALME-3M melanoma): 3.96 µM
- TGI (MDA-MB-231 breast): 4.94 µM
- TGI (MDA-MB-435): 14.1 µM
- TGI (MDA-N): 2.9 µM
- TGI (NCI-H226 lung): 6.2 µM
- TGI (NCI-H23 lung): 8.08 µM
- TGI (NCI-H460 lung): 2.75 µM
- TGI (NCI-H522 lung): 2.25 µM
- TGI (NCI/ADR-RES ovarian): > 76.8 µM
- TGI (OVCAR-3 ovarian): > 28.1 µM
- TGI (OVCAR-4 ovarian): 8.81 µM
- TGI (OVCAR-5 ovarian): 5.61 µM
- TGI (PC-3 prostate): > 30 µM
- TGI (RXF 393 renal): 3.91 µM
- TGI (SF-268 CNS): 5.39 µM
- TGI (SF-295 CNS): 14.8 µM
- TGI (SF-539 CNS): 3.57 µM
- TGI (SK-MEL-2 melanoma): 6.42 µM
- TGI (SK-MEL-28 melanoma): > 20.4 µM
- TGI (SK-MEL-5 melanoma): 9.87 µM
- TGI (SK-OV-3 ovarian): 31.9 µM
- TGI (SN12C renal): 6.44 µM
- TGI (SNB-19 CNS): > 26.8 µM
- TGI (SNB-75 CNS): 5.4 µM
- TGI (SR leukemia): > 100 µM
- TGI (SW-620 colon): 36.6 µM
- TGI (T-47D breast): > 26.3 µM
- TGI (TK-10 renal): 10.8 µM
- TGI (U251 CNS): > 28.4 µM
- TGI (UACC-257 melanoma): 16.7 µM
- TGI (UACC-62 melanoma): 13.8 µM
- TGI (UO-31 renal): 15.3 µM

Structure (SMILES): CC(C)=CC(O)C(C(O)CCC1(C)OCCO1)S(=O)(=O)c1ccccc1 (stereo unspecified)
- TGI (786-0 renal): > 100 µM
- TGI (A498 renal): > 100 µM
- TGI (A549 NSCLC): > 100 µM
- TGI (ACHN renal): > 100 µM
- TGI (BT-549 breast): > 100 µM
- TGI (CAKI-1 renal): > 100 µM
- TGI (CCRF-CEM leukemia): > 100 µM
- TGI (COLO 205 colon): > 100 µM
- TGI (EKVX NSCLC): > 100 µM
- TGI (HCC-2998 colon): > 100 µM
- TGI (HCT-116 colon): > 100 µM
- TGI (HCT-15 colon): > 100 µM
- TGI (HOP-62 NSCLC): > 100 µM
- TGI (IGROV1 ovarian): > 100 µM
- TGI (KM12 colon): > 100 µM
- TGI (LOX IMVI melanoma): > 100 µM
- TGI (M14 melanoma): > 100 µM
- TGI (MALME-3M melanoma): > 100 µM
- TGI (MCF7 breast): > 100 µM
- TGI (MDA-MB-231 breast): > 100 µM
- TGI (MDA-MB-435): > 100 µM
- TGI (MDA-N): > 100 µM
- TGI (NCI-H226 lung): > 100 µM
- TGI (NCI-H23 lung): > 100 µM
- TGI (NCI-H460 lung): > 100 µM
- TGI (NCI-H522 lung): > 100 µM
- TGI (NCI/ADR-RES ovarian): > 100 µM
- TGI (OVCAR-3 ovarian): > 100 µM
- TGI (OVCAR-4 ovarian): > 100 µM
- TGI (OVCAR-5 ovarian): > 100 µM
- TGI (OVCAR-8 ovarian): > 100 µM
- TGI (PC-3 prostate): > 100 µM
- TGI (RPMI-8226 leukemia): > 100 µM
- TGI (RXF 393 renal): > 100 µM
- TGI (SF-268 CNS): > 100 µM
- TGI (SF-295 CNS): > 100 µM
- TGI (SF-539 CNS): > 100 µM
- TGI (SK-MEL-2 melanoma): > 100 µM
- TGI (SK-MEL-28 melanoma): > 100 µM
- TGI (SK-OV-3 ovarian): > 100 µM
- TGI (SN12C renal): > 100 µM
- TGI (SNB-19 CNS): > 100 µM
- TGI (SNB-75 CNS): > 100 µM
- TGI (SW-620 colon): > 100 µM
- TGI (T-47D breast): > 100 µM
- TGI (TK-10 renal): > 100 µM
- TGI (U251 CNS): > 100 µM
- TGI (UACC-257 melanoma): > 100 µM
- TGI (UO-31 renal): > 100 µM
